In patent US20040022789A1, “Methods and compositions for treating T cell mediated inflammatory/autoimmune diseases and disorders in subjects having a glucocorticoid regulation deficiency” (The Washington University, priority 2002, published 2004):

How the values were obtained:
Assay type in all cases: in vivo
TGRko mice = assay: Mortality of TGRko mice after polyclonal T cell activation with anti-CD3ε antibody; settings: 100 μg anti-CD3ε antibody i.p., treatment before (and after) challenge
Procedure: (§1) Animal husbandry and plasma sampling: Mice were housed on a 12 h/12 h light/dark cycle with ad libitum access to rodent chow. Blood for measurement of corticosterone and cytokines was obtained by rapid retroorbital phlebotomy into heparinized capillary tubes with a total time from first handling the animal to completion of bleeding not exceeding 30 s. Plasma was separated by centrifugation and stored at −80° C. until assay. Unless otherwise noted, all mice used were 6-10 weeks old and of a C57BL/6×129/Sv genetic background.
Generation of TGRko mice: To build a TGRko targeting vector (pGRloxPneo), a loxP site was inserted into the unique Sac I site in the GR gene region upstream of exon 2 between exons 1B and 1C. A PGKneo (gene encoding for resistance to neomycin) cassette was then subcloned containing flanking loxP sites into intron 2 of the GR gene using oligonucleotide linkers. To obtain ES clones having replaced one copy of the endogenous murine GR locus with the GRloxPneo allele, TC1 ES cells were electroporated in the presence of linearized pGRloxPneo as has previously been described (See, e.g., Muglia, L. J. et al., J. Clin. Invest., 93:2066-2072 (1994)). DNA from 87 G418 resistant embryonic stem cell (ES) clones was analyzed by Southern blot, employing a probe external to the flanking regions within our targeting vector. […]

control mice = assay: Mortality after anti-CD3ε antibody in control mice pre-treated with mifepristone (GR antagonist)
Procedure: as §1
(§2) Pharmacologic and antibody treatment: Mice were injected intraperitoneally 100 μg anti-CD3p antibody (145-2C11) diluted in 250 μl PBS. Dexamethasone-treated mice were injected intraperitoneally with 200 μg dexamethasone phosphate just prior to and eight hours after anti-CD3ε antibody challenge. Neutralizing anti-IFNγ antibody (H22, 50 μg) was injected intraperitoneally one day before anti-CD3ε antibody administration as described previously. See, e.g., Ferran, C. et al., Eur. J. Immunol, 21:2349-2353 (1991). Mifepristone (RU 486, Sigma) was dissolved in 100% ethanol (50 mg/ml). Mifepristone-treated mice were given 0.5 mg (diluted in sesame oil) s.c. the night before and one hour prior to inflammatory challenge. […]

[1] = tested on: adrenalectomized control mice; assay: Mortality after anti-CD3ε antibody in adrenalectomized control mice
Procedure: Adrenalectomy: Mice were adrenalectomized as previously described and rested one week before being subjected to experimentation. See, e.g., Muglia, L. J. et al, J. Clin. Invest., 105:1269-1277 (2000).
Pharmacologic and antibody treatment: Mice were injected intraperitoneally 100 μg anti-CD3p antibody (145-2C11) diluted in 250 μl PBS. Dexamethasone-treated mice were injected intraperitoneally with 200 μg dexamethasone phosphate just prior to and eight hours after anti-CD3ε antibody challenge. Neutralizing anti-IFNγ antibody (H22, 50 μg) was injected intraperitoneally one day before anti-CD3ε antibody administration as described previously. See, e.g., Ferran, C. et al., Eur. J. Immunol, 21:2349-2353 (1991). Mifepristone (RU 486, Sigma) was dissolved in 100% ethanol (50 mg/ml). Mifepristone-treated mice were given 0.5 mg (diluted in sesame oil) s.c. the night before and one hour prior to inflammatory challenge. Cox-2 selective inhibitor-treated mice were given 300 μg of either SC-236 or NS-398 suspended in PBS/1% Tween-80 or vehicle twice a day for two days by oral gavage as previously described by Gross, G. et al, Am J. Physiol. Regul. Integr. Comp. Physiol., 278:R^1415-R^1423 (2000).

IL-2 = assay: Plasma IL-2 after anti-CD3ε antibody (ELISA); settings: TGRko mice; dexamethasone 200 μg before and 8 hours after anti-CD3ε antibody
Procedure: as §1
Cytokine Measurements: Plasma cytokines were measured according to manufacturer's instructions (Pharmingen).
as §2

SMILES: NS(=O)(=O)c1ccc(-n2nc(C(F)(F)F)cc2-c2ccc(Cl)cc2)cc1 [SC-236]
- mortality / lethality after anti-CD3ε antibody administration (TGRko mice): Protection from lethality
- protection from mortality (control mice; control mice treated with mifepristone+SC-236 (m/s) compared to vehicle-treated counterparts): significantly protected
- mice died within eight hours of anti-CD3ε antibody treatment ([1]; ADX+SC-236 (ADX+vehicle 4/5, Sham operated+vehicle 0/3)): 2/6
- rescue from mortality ([1]; adrenalectomized control mice, shorter timescale): essentially the same degree of rescue

SMILES: C[C@@H]1C[C@H]2[C@@H]3CCC4=CC(=O)C=C[C@]4(C)[C@@]3(F)[C@@H](O)C[C@]2(C)[C@@]1(O)C(=O)CO [dexamethasone]
- plasma IL-2 (IL-2): no significant effect

SMILES: CC#C[C@]1(O)CC[C@H]2[C@@H]3CCC4=CC(=O)CCC4=C3[C@@H](c3ccc(N(C)C)cc3)C[C@@]21C [mifepristone]
- susceptibility to the lethal effects of T cell activation (control mice; control mice, mifepristone+vehicle (m/v) compared to vehicle controls (v/v)): significantly more susceptible
